In assay [1] the test system is human vascular endothelial cells and fibroblast cells (co-culture). In words: Lumen formation with angiogenesis kit KZ-1000 (section 7). The assay is classed as cell-based. The following applies: day 11. As to the method:
Using an angiogenesis kit available from KURABO […] LTD. (Product No.: KZ-1000), lumen formation by the polypeptides was evaluated. Vascular endothelial growth factor A (VEGF-A) as a positive control, and polypeptide-free, unstimulated group as a negative control, were used.
Using a special medium for angiogenesis which was attached to the kit, each polypeptide was prepared such that the concentration thereof was respectively 0.5, 2.5 and 10 μg/mL. To a 24-well plate in which cells were plated (the cells were those obtained by co-culturing human vascular endothelial cells and fibroblast cells at an optimum concentration) which was attached to the kit, the special medium for angiogenesis containing each polypeptide was added, and the cells were cultured at 37° C. under 5% CO2. The medium was replaced with a medium containing the same additive on day 4, day 7 and day 9 of culture. On day 11 from the beginning of the culture, staining was performed using a kit for staining lumina (for CD31 antibody staining) according to the following procedure.
The media were removed, and washing was performed with Dulbecco's phosphate buffered saline (PBS(−)). Thereafter, ice-cooled 70% ethanol was added to the plate, and the cells were fixed. Each well was washed with a blocking solution (Dulbecco's phosphate buffered saline (PBS(−)) containing 1% BSA). To each well, 0.5 mL of the primary antibody for CD31 staining (mouse anti-human CD31 antibody) 4000-fold diluted with the blocking solution was added, and then the plate was incubated for 60 minutes at 37° C. After the completion of the incubation, each well was washed totally 3 times with 1 mL of the blocking solution. Then, 0.5 mL of the secondary antibody solution (goat anti-mouse IgG/alkaline phosphatase conjugate) 500-fold diluted with the blocking solution was added to each well. The plate was incubated for 60 minutes at 37° C., and thereafter each well was washed 3 times with 1 mL of distilled water. During that period, 2 tablets of BCIP/NBT were dissolved into distilled water, and the obtained solution was filtered through a filter having a pore size of […] to prepare a substrate solution. To each well, 0.5 mL of the prepared BCIP/NBT substrate solution was added, and the plate was incubated at 37° C. until the lumina turned to deep purple (typically for 5-10 minutes). After the completion of the incubation, each well was washed 3 times with 1 mL of distilled water. After washing, the washing solution was removed by aspiration, and the plate was left to stand and dry naturally. After drying, photographs of each well were taken under a microscope.
Each of the obtained images was quantified using an angiogenesis quantification software. The area and length of formed lumina observed in each visual field were measured on the basis of the scale of an angiogenesis quantification software available from KURABO […] LTD. (angiogenesis quantification software Ver 1.0), and evaluated on the basis of the ratio of the area or length of polypeptide-containing groups relative to the area or length of the negative control group.

In assay [2] the test system is Staphylococcus aureus ATCC29213. In words: Antibacterial activity, ATP assay (BacTiter-Glo). Format: cell-based. The following applies: 10 μg/mL, ATP assay. As to the method:
The antibacterial activity of the polypeptides was measured using an ATP assay method. That is, using BacTiter-Glo Microbial Cell Viability Assay kit available from PROMEGA, the antibacterial activity of the peptides was evaluated from the viability of bacteria. […] With respect to the strains, Staphylococcus aureus ATCC29213 (S. aureus ATCC29213) as Gram-positive bacteria, or, alternatively, Pseudomonas aeruginosa (P. aeruginosa ATCC27853) as Gram-negative bacteria, was used. The bacteria were cultured in media for 3 to 4 hours, and thereafter absorbances at A600 were measured. Bacterial suspensions were diluted with Mueller-Hinton broth (MHB) according to McFarland #0.5. Each strain was added so as to attain about 0.5−1×10^5 CFU/mL (final concentration) in terms of Escherichia coli. […] A solution to which the peptides were not added was considered as a negative control, and a solution to which tobramycin (TOB) was added was considered as a positive control. […] Relative values were calculated by comparison with the negative control, and these values were regarded as the viability. ATP (%) of the antibacterial activity was measured in the same manner as mentioned above, and the “minimum inhibitory concentration (MIC)” was measured as follows. MIC is the lowest concentration of an agent that may inhibit the growth of a bacterium. MIC is used as a parameter for the efficacy of an antibacterial agent, for the strength of bacterial sensitivity, or the like. The bacteria can grow (proliferate) when the concentration is not higher than MIC, and cannot grow when the concentration is higher than MIC. Its measurement is carried out according to a method defined as a standard method by Japanese Society of Chemotherapy or CLINICAL AND LABORATORY […] (CLSI), but, in this Example, its measurement was carried out by a broth microdilution method in accordance with “M100-S17/M7-A7” (Performance Standards for Antimicrobial Susceptibility Testing; Seventeenth Informational Supplement, Vol. 27 No. 1) published by CLSI on January, 2007. That is, sensitivity test of agents was carried out using a microtiter plate or test tubes. With respect to each strain, Escherichia coli: ATCC 25922 (Escherichia coli ATCC 25922), Pseudomonas aeruginosa: ATCC 27853 (Pseudomonas aeruginosa ATCC 27853), Staphylococcus aureus: ATCC29213 (Staphylococcus aureus ATCC29213), Klebsiella pneumoniae: JCM 1662 (Klebsiella pneumoniae JCM 1662), enterobacteria (1): JCM 1232 (Enterobacter cloacae JCM 1232), enterobacteria (2): JCM 1235 (Enterobacter aerogenes JCM 1235), and Staphylococcus epidermidis: JCM 2414 (Staphylococcus epidermidis JCM 2414), were used. […] As the concentrations of the agents in ATP assay, the concentrations as described in the Tables were used.

[3] abbreviates: VEGF-A positive control, concentration not given.

Peptide text beside a SMILES is read from it.

Consider `CSCC[C@H](N)C(=O)N[C@@H](CCCNC(=N)N)C(=O)N[C@@H](CCCCN)C(=O)N[C@@H](CCCNC(=N)N)C(=O)N[C@@H](CC(C)C)C(=O)N[C@@H](CCCCN)C(=O)N[C@@H](CCCNC(=N)N)C(=O)N[C@@H](CCCCN)C(=O)N[C@@H](CC(C)C)C(=O)N[C@@H](CCCNC(=N)N)C(=O)N[C@@H](CC(C)C)C(=O)N[C@@H](Cc1c[nH]c2ccccc12)C(=O)N[C@@H](Cc1c[nH]cn1)C(=O)N[C@@H](CCCNC(=N)N)C(=O)N[C@@H](CCCCN)C(=O)N[C@@H](CCCNC(=N)N)C(=O)N[C@@H](Cc1ccc(O)cc1)C(=O)N[C@@H](CCCCN)C(N)=O` [SR-6] (H-MRKRLKRKLRLWHRKRYK-NH2; N-terminus assumed), for which, in assay [1] (polypeptide 0.5 μg/mL), the “The Area of Lumina (relative value, negative control as 100)” value is on record as 97.3 and the “The Length of Lumina (relative value, negative control as 100)” value is recorded as 98.4. In assay [1] (polypeptide 10 μg/mL), the “The Area of Lumina (relative value, negative control as 100)” value is listed as 98.6 and the “The Length of Lumina (relative value, negative control as 100)” value amounted to 96.6. For the same compound, in assay [2], the “antibacterial activity against Staphylococcus aureus compared with AG30-5C” value is “higher antibacterial activity against Staphylococcus aureus than AG30-5C”.

In the case of “Vascular endothelial growth factor A [VEGF-A]”, in assay [1] (setting [3]), the “The Area of Lumina (relative value, negative control as 100)” value turned out to be 189.2 and the “The Length of Lumina (relative value, negative control as 100)” value stood at 169.8.

These data come from US9376470B2, “Polypeptide having angiogenesis-inducing activity and antibacterial activity, and use thereof for medical purposes” (FunPep Inc., priority 2008, dated 2016).
